The source of these data is ChEMBL document CHEMBL1201862, “PubChem BioAssay data set” (2004).

Calls of active or inactive are those of the source. A value given as a limit tells only on which side of the number the result lay.

For orientation: AC50 means the midpoint of the concentration-response curve, whichever way the signal moves. For orientation: IC50 means the midpoint of a concentration-inhibition curve. As usually defined, the EC50 is the concentration giving half of the maximal effect.

Targets include Cytochrome P450 2D6 (Homo sapiens, UniProt P10635); Cytochrome P450 2C9 (Homo sapiens, UniProt P11712); Cytochrome P450 3A4 (Homo sapiens, UniProt P08684).
Another experiment addresses T1, Cytochrome P450 1A2 (Homo sapiens, UniProt P05177).
T1 sequence (P05177 whole entry): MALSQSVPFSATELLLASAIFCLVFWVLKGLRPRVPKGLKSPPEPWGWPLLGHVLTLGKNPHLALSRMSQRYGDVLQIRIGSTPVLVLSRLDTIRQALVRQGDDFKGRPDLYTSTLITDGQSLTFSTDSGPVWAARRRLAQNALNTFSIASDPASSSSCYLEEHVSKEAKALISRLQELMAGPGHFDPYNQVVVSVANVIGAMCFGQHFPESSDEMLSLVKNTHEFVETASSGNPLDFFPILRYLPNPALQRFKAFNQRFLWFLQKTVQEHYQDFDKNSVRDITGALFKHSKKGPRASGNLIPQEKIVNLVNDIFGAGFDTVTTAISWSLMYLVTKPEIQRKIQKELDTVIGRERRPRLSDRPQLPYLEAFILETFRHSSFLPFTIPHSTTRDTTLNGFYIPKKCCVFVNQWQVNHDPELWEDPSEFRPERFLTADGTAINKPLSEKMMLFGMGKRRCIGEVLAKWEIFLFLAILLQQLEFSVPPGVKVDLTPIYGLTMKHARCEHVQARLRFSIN

The target of a further experiment is Large T antigen (Simian virus 40, UniProt P03070). Format: functional, Betapolyomavirus macacae.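 Further: Confirmatory-stage PubChem screen for compounds that inhibit SV40 T antigen.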
Experiment [1] can be described thus: Luminescence Cell-Based Dose Confirmation HTS to Identify Inhibitors of Platelet Dense Granule Release. [Related pubchem assays: 1663 (Primary HTS), 1678 (Summary of Project)]. In kind it is functional.
In experiment [2] the target is Luciferin 4-monooxygenase (Photinus pyralis, UniProt P08659). In words: firefly luciferase enzyme inhibitors, dose response, biochemical, luminescence (AID 1891).
The target of another experiment is Cytochrome P450 2C19 (Homo sapiens, UniProt P33261). Nature of the experiment: Cytochrome panel assay with activity outcomes. Panel member name: p450-cyp2c19 Compounds with AC50 equal or less than 10 uM are considered active. Conditions: read-out: AC50. In kind it is functional.
Experiment [3] addresses T2, Rac GTPase-activating protein 1 (Homo sapiens, UniProt Q9H0H5).
T2 sequence (Q9H0H5 whole entry): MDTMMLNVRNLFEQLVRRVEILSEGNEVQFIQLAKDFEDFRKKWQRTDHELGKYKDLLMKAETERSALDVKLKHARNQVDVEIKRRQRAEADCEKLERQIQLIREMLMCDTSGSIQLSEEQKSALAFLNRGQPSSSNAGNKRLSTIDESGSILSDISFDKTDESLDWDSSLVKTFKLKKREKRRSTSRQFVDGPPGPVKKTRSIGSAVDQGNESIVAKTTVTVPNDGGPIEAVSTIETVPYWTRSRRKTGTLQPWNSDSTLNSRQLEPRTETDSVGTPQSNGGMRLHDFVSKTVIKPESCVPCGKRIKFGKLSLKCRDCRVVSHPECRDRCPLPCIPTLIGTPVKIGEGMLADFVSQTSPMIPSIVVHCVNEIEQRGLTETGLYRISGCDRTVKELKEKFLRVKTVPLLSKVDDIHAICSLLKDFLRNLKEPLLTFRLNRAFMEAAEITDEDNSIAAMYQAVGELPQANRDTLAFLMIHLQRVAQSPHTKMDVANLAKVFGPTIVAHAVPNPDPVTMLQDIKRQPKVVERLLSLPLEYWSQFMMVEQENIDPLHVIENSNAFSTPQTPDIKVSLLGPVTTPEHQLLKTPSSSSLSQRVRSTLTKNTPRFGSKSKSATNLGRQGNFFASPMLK
In words: MgcRacGAP GTPase-activating activity inhibitors, confirmation, biochemical, ADP Hunter fluorescence, primary and confirmatory (AID 624330). Format: functional.

Cytochrome P450 2D6, sequence (P10635 whole entry): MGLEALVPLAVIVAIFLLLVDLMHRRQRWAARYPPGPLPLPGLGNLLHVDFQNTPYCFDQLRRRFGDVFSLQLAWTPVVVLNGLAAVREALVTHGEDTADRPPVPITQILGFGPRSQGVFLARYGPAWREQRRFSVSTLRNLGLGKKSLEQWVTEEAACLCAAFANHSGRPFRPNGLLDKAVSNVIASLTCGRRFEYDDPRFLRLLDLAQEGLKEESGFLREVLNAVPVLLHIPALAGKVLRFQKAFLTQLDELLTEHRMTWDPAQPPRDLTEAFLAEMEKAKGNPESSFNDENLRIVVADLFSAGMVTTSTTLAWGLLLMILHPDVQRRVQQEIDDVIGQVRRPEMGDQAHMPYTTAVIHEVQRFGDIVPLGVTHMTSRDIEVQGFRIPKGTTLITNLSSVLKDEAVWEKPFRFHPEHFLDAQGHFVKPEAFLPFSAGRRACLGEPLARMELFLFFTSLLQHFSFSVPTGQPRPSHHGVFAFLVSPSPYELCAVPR
Cytochrome P450 2C9, sequence (P11712 whole entry): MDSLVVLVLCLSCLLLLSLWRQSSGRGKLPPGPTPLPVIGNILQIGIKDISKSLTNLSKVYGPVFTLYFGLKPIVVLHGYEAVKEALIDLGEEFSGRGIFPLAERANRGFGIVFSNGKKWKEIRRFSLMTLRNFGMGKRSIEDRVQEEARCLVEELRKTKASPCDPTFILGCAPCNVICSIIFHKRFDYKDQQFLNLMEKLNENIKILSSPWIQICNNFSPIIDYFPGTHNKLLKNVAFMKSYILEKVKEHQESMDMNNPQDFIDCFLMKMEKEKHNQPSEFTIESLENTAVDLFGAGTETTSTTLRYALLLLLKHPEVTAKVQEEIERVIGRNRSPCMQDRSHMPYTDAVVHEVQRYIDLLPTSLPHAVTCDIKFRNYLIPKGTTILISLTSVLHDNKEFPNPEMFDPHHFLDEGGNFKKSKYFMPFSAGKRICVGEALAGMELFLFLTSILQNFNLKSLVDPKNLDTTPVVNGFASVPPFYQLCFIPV
Cytochrome P450 2C19, sequence (P33261 whole entry): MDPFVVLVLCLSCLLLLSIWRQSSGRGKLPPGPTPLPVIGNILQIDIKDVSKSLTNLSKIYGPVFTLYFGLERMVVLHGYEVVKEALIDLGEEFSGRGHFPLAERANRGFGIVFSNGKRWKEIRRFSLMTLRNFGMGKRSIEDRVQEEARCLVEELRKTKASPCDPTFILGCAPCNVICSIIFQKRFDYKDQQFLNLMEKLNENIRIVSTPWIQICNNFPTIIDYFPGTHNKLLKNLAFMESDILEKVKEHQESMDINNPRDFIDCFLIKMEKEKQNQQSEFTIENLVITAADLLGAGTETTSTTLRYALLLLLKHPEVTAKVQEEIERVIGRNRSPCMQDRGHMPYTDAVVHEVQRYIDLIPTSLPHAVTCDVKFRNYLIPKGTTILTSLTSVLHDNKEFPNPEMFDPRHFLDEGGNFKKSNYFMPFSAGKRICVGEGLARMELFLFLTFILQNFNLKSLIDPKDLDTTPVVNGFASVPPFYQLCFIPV
Large T antigen, sequence (P03070 whole entry): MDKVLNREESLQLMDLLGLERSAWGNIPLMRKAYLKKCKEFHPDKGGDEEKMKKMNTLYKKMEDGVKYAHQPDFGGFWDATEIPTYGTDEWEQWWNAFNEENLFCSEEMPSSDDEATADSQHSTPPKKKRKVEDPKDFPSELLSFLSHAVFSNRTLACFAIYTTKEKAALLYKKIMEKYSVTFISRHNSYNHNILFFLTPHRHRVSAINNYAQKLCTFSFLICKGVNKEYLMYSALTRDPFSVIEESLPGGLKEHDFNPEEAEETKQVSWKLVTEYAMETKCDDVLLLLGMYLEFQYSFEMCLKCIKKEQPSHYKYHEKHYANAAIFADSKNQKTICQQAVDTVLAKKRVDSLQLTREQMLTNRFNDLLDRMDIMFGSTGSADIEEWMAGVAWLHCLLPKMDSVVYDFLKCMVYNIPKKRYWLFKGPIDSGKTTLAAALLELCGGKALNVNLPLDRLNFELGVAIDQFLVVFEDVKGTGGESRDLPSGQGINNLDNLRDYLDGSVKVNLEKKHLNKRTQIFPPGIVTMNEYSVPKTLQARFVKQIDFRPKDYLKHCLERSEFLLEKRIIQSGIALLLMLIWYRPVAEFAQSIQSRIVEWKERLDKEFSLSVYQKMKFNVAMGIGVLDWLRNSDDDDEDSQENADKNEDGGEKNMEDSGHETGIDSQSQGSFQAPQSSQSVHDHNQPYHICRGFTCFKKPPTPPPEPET
Cytochrome P450 3A4, sequence (P08684 whole entry): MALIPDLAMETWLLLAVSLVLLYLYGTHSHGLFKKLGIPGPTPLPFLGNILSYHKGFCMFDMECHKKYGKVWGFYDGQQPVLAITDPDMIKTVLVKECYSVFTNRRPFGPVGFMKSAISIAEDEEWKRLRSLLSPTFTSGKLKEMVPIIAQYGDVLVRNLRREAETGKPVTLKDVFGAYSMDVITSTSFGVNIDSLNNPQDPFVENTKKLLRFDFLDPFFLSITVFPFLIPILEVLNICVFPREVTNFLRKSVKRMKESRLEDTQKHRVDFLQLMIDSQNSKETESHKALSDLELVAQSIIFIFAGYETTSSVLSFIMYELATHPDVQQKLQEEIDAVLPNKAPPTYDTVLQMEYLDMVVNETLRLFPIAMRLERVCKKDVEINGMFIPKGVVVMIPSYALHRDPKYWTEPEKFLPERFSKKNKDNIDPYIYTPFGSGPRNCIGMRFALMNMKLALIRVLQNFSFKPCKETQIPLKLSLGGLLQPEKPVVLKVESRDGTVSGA
Luciferin 4-monooxygenase, sequence (P08659 whole entry): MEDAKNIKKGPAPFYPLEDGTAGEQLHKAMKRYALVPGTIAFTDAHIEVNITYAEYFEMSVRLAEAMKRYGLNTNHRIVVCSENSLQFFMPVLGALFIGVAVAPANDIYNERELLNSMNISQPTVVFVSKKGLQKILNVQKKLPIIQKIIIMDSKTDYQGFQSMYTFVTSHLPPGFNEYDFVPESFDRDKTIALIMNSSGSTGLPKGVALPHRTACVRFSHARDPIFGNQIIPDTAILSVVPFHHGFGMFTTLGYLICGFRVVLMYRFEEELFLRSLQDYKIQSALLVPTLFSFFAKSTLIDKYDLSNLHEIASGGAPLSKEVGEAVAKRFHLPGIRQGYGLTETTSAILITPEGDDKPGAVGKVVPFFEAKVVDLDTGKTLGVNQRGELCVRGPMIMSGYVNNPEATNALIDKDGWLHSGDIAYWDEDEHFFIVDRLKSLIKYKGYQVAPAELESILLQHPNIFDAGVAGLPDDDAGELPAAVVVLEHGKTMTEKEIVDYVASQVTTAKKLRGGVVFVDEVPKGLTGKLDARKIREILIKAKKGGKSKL

`CCCc1nc2ccccc2c(C(=O)OCC(=O)Nc2cccc(S(=O)(=O)N3CCOCC3)c2)c1CC`: the AC50 is 17.8 µM (inconclusive) on Cytochrome P450 2D6 and 10 µM (inconclusive) on Cytochrome P450 1A2.

With `COc1cc2c(cc1OC)-c1cc(Nc3ccc(N(C)C)cc3)nc(=O)n1CC2`, on Large T antigen, the IC50 is 2.74 µM (active). Moreover, the EC50 in experiment [1] was 4.83 µM (active); in experiment [2], > 112 µM (not active). In the case of `O=C(CSc1nc2ccccc2s1)Nc1nccs1`, on Cytochrome P450 2D6, the AC50 is 0.316 µM (inconclusive). Turning to `COCCn1c(=O)c(-c2cccc(C#N)c2)nc2cnc(N(C)C)nc21`, the AC50 on Cytochrome P450 2D6 is 0.1 µM (inconclusive); at Cytochrome P450 1A2, 2 µM (inconclusive).

Turning to `O=C(O)[C@@H]1Cc2c([nH]c3ccccc23)[C@@H](CCCCO)N1`, the concentration at half-maximal activity (AC50) at Cytochrome P450 2D6 is 3.98 µM (inconclusive). As for `O=C(Nc1ccc(F)cc1)c1cc(S(=O)(=O)N2CCCCC2)cs1`, at Cytochrome P450 2D6, the AC50 was 25.1 µM (inconclusive). As to `Cn1c(C(=O)NCC2CCCO2)cc2c(=O)n3ccccc3nc21` (stereo not drawn), the concentration at half-maximal activity (AC50) is 3.55 µM (inconclusive) on Cytochrome P450 2D6, 17.8 µM (inconclusive) on Cytochrome P450 2C19 and 25.1 µM (inconclusive) on Cytochrome P450 2C9. For the compound `Cc1ccc(N(CCC#N)C(=O)CSc2ccc3c(c2)OCCO3)cc1`, the AC50 at Cytochrome P450 2D6 is 25.1 µM (inconclusive). `O=C(Nc1ccc2nc(-c3ccc(Br)o3)[nH]c2c1)c1ccco1`: the AC50 at Cytochrome P450 2D6 is 1 µM (inconclusive); at Cytochrome P450 2C9, 11.2 µM (inconclusive). `COc1ccccc1-c1nc(NCc2cnc(C)cn2)c2ccccc2n1`: the AC50 on Cytochrome P450 2D6 is 31.6 µM (inconclusive); on Cytochrome P450 2C19, 39.8 µM (inconclusive). As for `Fc1cccc(/C=N\N=C/c2cccc(F)c2)c1`, the AC50 was 25.1 µM (inconclusive) on Cytochrome P450 2D6 and 31.6 µM (inconclusive) at Cytochrome P450 3A4. With `COCC(=O)N1CCC[C@@]2(CCN(c3ncccn3)C2)C1`, the AC50 at Cytochrome P450 2D6 was 15.8 µM (inconclusive).

As to `C/N=c1\scc(C)n1/N=C/c1ccc(O)cc1O`, the half-maximal inhibitory concentration (IC50) was 10.5 µM (active) in experiment [3] and 4.27 µM (active) at Large T antigen.
